Measured values published in publication PMC13128454, “Mutant p53 protein accumulation is selectively targetable by proximity-inducing drugs” (Nature Chemical Biology, 2025).
“And” between values parts separate entries of the source, which are not always exact repeats. Identical values can stand only once. Like-named read-outs stand apart in the source and are kept apart here.

Columns and labels:
Format in all cases: cell-based
[1] = tested on: Calu-1 cells stably expressing Halo–p53-R273H (FL)–mCherry versus parental Calu-1 cells; assay: flow-cytometry growth competition; details: 7 days
Experimental: (§1) Cells with and without a fluorescent marker (for example, Halo–p53–mCherry) were mixed and the resulting solution was plated in six-well plates or 10-cm dishes at low density; compound was added at varying concentrations. After reaching confluence, cells were passaged and retreated with compound if needed. Otherwise, cells were trypsinized, washed and resuspended in complete growth medium in 96-well plates or tubes for flow cytometry. Untreated cell mixtures were used to establish gates separating the fluorophore^+/− populations. Analysis was conducted on a CytoFLEX LX flow cytometer.

[2] = tested on: Halo–p53-Y220C ΔTAD–mCherry 293T cells versus parental 293T cells; assay: flow-cytometry growth competition; details: for EC50: Homo sapiens, HEK-293T; for normalized_mCherry_percentage: Y220C, day 8, normalized to DMSO
Experimental: as §1

[3] = tested on: MFE319 cells stably expressing sgTP53–Cas9–EGFP versus parental MFE319 cells; assay: flow-cytometry growth competition
Experimental: as §1

[4] = tested on: Halo–p53-Y220C ΔTAD–mCherry 293T cells; assay: annexin–PI staining; details: for P3_avg (P3 = early apoptotic) / P5_avg (P5 = late apoptotic): Cell_Line Y220C, proportion of cells; for avgprop_P3 / avgprop_P4 / avgprop_P5 / avgprop_P2 / P2_viable / P3_AnnexinPos_PIneg / P4_PIpos_AnnexinNeg / P5_PIpos_Annexinpos / prop_P3 / prop_P4 / prop_P5 / prop_P2: Y220C; for avgprop_P3: average proportion AnnexinPos PIneg; for avgprop_P4: average proportion PIpos AnnexinNeg; for avgprop_P5: average proportion PIpos Annexinpos; for avgprop_P2: average proportion viable; for P2_viable / P3_AnnexinPos_PIneg / P4_PIpos_AnnexinNeg / P5_PIpos_Annexinpos: event count; for P2_viable / P3_AnnexinPos_PIneg / P4_PIpos_AnnexinNeg / P5_PIpos_Annexinpos / prop_P3 / prop_P4 / prop_P5 / prop_P2: single replicate; for prop_P3: proportion AnnexinPos PIneg; for prop_P4: proportion PIpos AnnexinNeg; for prop_P5: proportion PIpos Annexinpos; for prop_P2: proportion viable
Experimental: (§2) Cells were plated in six-well plates and treated with varying concentrations of compounds for 1 day. Cells were stained with annexin V–AF488 and PI following the manufacturer’s instructions (Thermo Fisher, V13241) and analyzed by flow cytometry (Beckman CytoFLEX LX), using untreated cells to establish gates.

[5] = tested on: parental 293T cells; assay: annexin–PI staining; details: for P3_avg (P3 = early apoptotic) / P5_avg (P5 = late apoptotic): Cell_Line WT, proportion of cells; for avgprop_P3 / avgprop_P4 / avgprop_P5 / avgprop_P2 / P2_viable / P3_AnnexinPos_PIneg / P4_PIpos_AnnexinNeg / P5_PIpos_Annexinpos / prop_P3 / prop_P4 / prop_P5 / prop_P2: WT; for avgprop_P3: average proportion AnnexinPos PIneg; for avgprop_P4: average proportion PIpos AnnexinNeg; for avgprop_P5: average proportion PIpos Annexinpos; for avgprop_P2: average proportion viable; for P2_viable / P3_AnnexinPos_PIneg / P4_PIpos_AnnexinNeg / P5_PIpos_Annexinpos: event count; for P2_viable / P3_AnnexinPos_PIneg / P4_PIpos_AnnexinNeg / P5_PIpos_Annexinpos / prop_P3 / prop_P4 / prop_P5 / prop_P2: single replicate; for prop_P3: proportion AnnexinPos PIneg; for prop_P4: proportion PIpos AnnexinNeg; for prop_P5: proportion PIpos Annexinpos; for prop_P2: proportion viable
Experimental: as §2

[6] = viability with doxycycline-inducible construct; details: human, dox 0, read-out: mean_norm (normalized viability)
Experimental: (§3) Cells were plated in 384-well plates (typically 1,500 cells per well) with varying concentrations of compounds, with a total volume of 50 μl per well. CTG reagent was added (25 μl) to the solutions, mixed and read out using an EnVision 2105 multimode plate reader.

[7] = tested on: 293T cells expressing a dox inducible Halo–p53-Y220C ΔTAD–mCherry; assay: viability with doxycycline-inducible construct
Experimental: as §3

Structure (SMILES): CC[C@@H]1C(=O)N(C)c2cnc(Nc3ccc(C(=O)NCCOCCOCCOCCOCCC(=O)N4CCC(Nc5cccc6c5cc(C#CCNc5ccc(S(C)(=O)=O)cc5OC)n6CC(F)(F)F)CC4)cc3OC)nc2N1C1CCCC1 [p53-01, PMV6-PEG4-BI2536]
- activity in competition [1]: did not observe any activity
- mCherry_percent ([2]; 1 uM, 8 days, untreated 39.76): 6.93%
- Emax, decline in the mCherry^+ fraction ([2]; 8-day competition): 21.5 fold
- EC50 ([2]; 192 h, 8-day competition, read-out: EC50 growth competition): 443 nM
- EC50 ([2]; 240 h, growth competition analyzed on day 10, n = 3, read-out: Competition EC50): 850 nM
- normalized_mCherry_percentage ([2]; 62.5 nM): 97.27%
- normalized_mCherry_percentage ([2]; 125 nM): 95.36%
- normalized_mCherry_percentage ([2]; 250 nM): 82.43%
- normalized_mCherry_percentage ([2]; 500 nM): 42.51%
- normalized_mCherry_percentage ([2]; 1 uM): 16.67%
- normalized_mCherry_percentage ([2]; 2 uM): 4.655%
- selection in growth competition ([2]; dosed between 250 nM and 2 μM, 8-day): strong selection against p53-Y220C^+ cells
- mCherry^+ percentage in competition, replicate ([2]; p53-01 250 nM, untreated 28.89, 29.94, 29.02): 3.07 and 3.6 and 3.2
- decline in mCherry^+ percentage ([2]; p53-01 alone at 250 nM): 8.9 fold
- merge_avg (growth competition, sheet 4H) ([3]; Concentration (pM) 156250): 0.9416
- merge_avg (growth competition, sheet 4H) ([3]; Concentration (pM) 312500): 0.9268
- merge_avg (growth competition, sheet 4H) ([3]; Concentration (pM) 600000): 0.9517
- merge_avg (growth competition, sheet 4H) ([3]; Concentration (pM) 800000): 1.131
- merge_avg (growth competition, sheet 4H) ([3]; Concentration (pM) 1000000): 1.205
- merge_avg (growth competition, sheet 4H) ([3]; Concentration (pM) 1100000): 1.344
- merge_avg (growth competition, sheet 4H) ([3]; Concentration (pM) 1250000): 1.624
- enrichment of EGFP^+ (TP53-knockout) population ([3]; day 9, p53-01 at doses between 800 nM and 1.25 μM): significantly enrich an EGFP^+ population
- P3_avg (P3 = early apoptotic) ([4]; Concentration 0.75): 0.07971
- P5_avg (P5 = late apoptotic) ([4]; Concentration 0.75): 0.02225
- P3_avg (P3 = early apoptotic) ([4]; Concentration 1.5): 0.2575
- P5_avg (P5 = late apoptotic) ([4]; Concentration 1.5): 0.07698
- avgprop_P3 ([4]; Concentration 0.75): 0.07971
- avgprop_P4 ([4]; Concentration 0.75): 0.05038
- avgprop_P5 ([4]; Concentration 0.75): 0.02225
- avgprop_P2 ([4]; Concentration 0.75): 0.8477
- P2_viable ([4]; Concentration 0.75): 1654 and 1707 and 1670
- P3_AnnexinPos_PIneg ([4]; Concentration 0.75): 165 and 158 and 150
- P4_PIpos_AnnexinNeg ([4]; Concentration 0.75): 95 and 98 and 106
- P5_PIpos_Annexinpos ([4]; Concentration 0.75): 45 and 43 and 44
- prop_P3 ([4]; Concentration 0.75): 0.08423 and 0.07876 and 0.07614
- prop_P4 ([4]; Concentration 0.75): 0.04849 and 0.04885 and 0.05381
- prop_P5 ([4]; Concentration 0.75): 0.02297 and 0.02144 and 0.02234
- prop_P2 ([4]; Concentration 0.75): 0.8443 and 0.8509 and 0.8477
- avgprop_P3 ([4]; Concentration 1.5): 0.2575
- avgprop_P4 ([4]; Concentration 1.5): 0.06957
- avgprop_P5 ([4]; Concentration 1.5): 0.07698
- avgprop_P2 ([4]; Concentration 1.5): 0.5959
- P2_viable ([4]; Concentration 1.5): 912 and 887 and 871
- P3_AnnexinPos_PIneg ([4]; Concentration 1.5): 381 and 378 and 395
- P4_PIpos_AnnexinNeg ([4]; Concentration 1.5): 104 and 92 and 116
- P5_PIpos_Annexinpos ([4]; Concentration 1.5): 109 and 111 and 125
- prop_P3 ([4]; Concentration 1.5): 0.253 and 0.2575 and 0.2621
- prop_P4 ([4]; Concentration 1.5): 0.06906 and 0.06267 and 0.07697
- prop_P5 ([4]; Concentration 1.5): 0.07238 and 0.07561 and 0.08295
- prop_P2 ([4]; Concentration 1.5): 0.6056 and 0.6042 and 0.578
- P3_avg (P3 = early apoptotic) ([5]; Concentration 0.75): 0.05911
- P5_avg (P5 = late apoptotic) ([5]; Concentration 0.75): 0.02085
- P3_avg (P3 = early apoptotic) ([5]; Concentration 1.5): 0.05067
- P5_avg (P5 = late apoptotic) ([5]; Concentration 1.5): 0.02081
- avgprop_P3 ([5]; Concentration 0.75): 0.05911
- avgprop_P4 ([5]; Concentration 0.75): 0.03071
- avgprop_P5 ([5]; Concentration 0.75): 0.02085
- avgprop_P2 ([5]; Concentration 0.75): 0.8893
- P2_viable ([5]; Concentration 0.75): 1988 and 1975 and 1922
- P3_AnnexinPos_PIneg ([5]; Concentration 0.75): 134 and 116 and 141
- P4_PIpos_AnnexinNeg ([5]; Concentration 0.75): 58 and 71 and 74
- P5_PIpos_Annexinpos ([5]; Concentration 0.75): 48 and 44 and 46
- prop_P3 ([5]; Concentration 0.75): 0.06014 and 0.05258 and 0.06459
- prop_P4 ([5]; Concentration 0.75): 0.02603 and 0.03218 and 0.0339
- prop_P5 ([5]; Concentration 0.75): 0.02154 and 0.01995 and 0.02107
- prop_P2 ([5]; Concentration 0.75): 0.8923 and 0.8953 and 0.8804
- avgprop_P3 ([5]; Concentration 1.5): 0.05067
- avgprop_P4 ([5]; Concentration 1.5): 0.03243
- avgprop_P5 ([5]; Concentration 1.5): 0.02081
- avgprop_P2 ([5]; Concentration 1.5): 0.8961
- P2_viable ([5]; Concentration 1.5): 1971 and 1980 and 1990
- P3_AnnexinPos_PIneg ([5]; Concentration 1.5): 112 and 109 and 115
- P4_PIpos_AnnexinNeg ([5]; Concentration 1.5): 75 and 68 and 72
- P5_PIpos_Annexinpos ([5]; Concentration 1.5): 48 and 43 and 47
- prop_P3 ([5]; Concentration 1.5): 0.05077 and 0.04955 and 0.05171
- prop_P4 ([5]; Concentration 1.5): 0.034 and 0.03091 and 0.03237
- prop_P5 ([5]; Concentration 1.5): 0.02176 and 0.01955 and 0.02113
- prop_P2 ([5]; Concentration 1.5): 0.8935 and 0.9 and 0.8948
- viability ([6]; Concentration 156.25): 99.3%
- viability ([6]; Concentration 312.5): 95.6%
- viability ([6]; Concentration 625): 95.7%
- viability ([6]; Concentration 1250): 95.8%
- viability ([6]; Concentration 2500): 77.5%
- viability ([6]; Concentration 5000): 60.1%
- change of potency upon doxycycline induction ([7]; dox 0, 100, 1000 ng/mL, 4 days): approximately twofold
- mean_norm (normalized viability) ([7]; dox 0, Concentration 39.0625): 0.9911
- mean_norm (normalized viability) ([7]; dox 0, Concentration 78.125): 0.9922
- mean_norm (normalized viability) ([7]; dox 0, Concentration 10000): 0.4681
- mean_norm (normalized viability) ([7]; dox 100, Concentration 39.0625): 0.9915
- mean_norm (normalized viability) ([7]; dox 100, Concentration 78.125): 1.002
- mean_norm (normalized viability) ([7]; dox 100, Concentration 156.25): 0.9543
- mean_norm (normalized viability) ([7]; dox 100, Concentration 312.5): 0.9412
- mean_norm (normalized viability) ([7]; dox 100, Concentration 625): 0.8872
- mean_norm (normalized viability) ([7]; dox 100, Concentration 1250): 0.7055
- mean_norm (normalized viability) ([7]; dox 100, Concentration 2500): 0.6021
- mean_norm (normalized viability) ([7]; dox 100, Concentration 5000): 0.3858
- mean_norm (normalized viability) ([7]; dox 100, Concentration 10000): 0.3055
- mean_norm (normalized viability) ([7]; dox 1000, Concentration 39.0625): 0.9926
- mean_norm (normalized viability) ([7]; dox 1000, Concentration 78.125): 1.004
- mean_norm (normalized viability) ([7]; dox 1000, Concentration 156.25): 1.0052
- mean_norm (normalized viability) ([7]; dox 1000, Concentration 312.5): 0.8955
- mean_norm (normalized viability) ([7]; dox 1000, Concentration 625): 0.8604
- mean_norm (normalized viability) ([7]; dox 1000, Concentration 1250): 0.7628
- mean_norm (normalized viability) ([7]; dox 1000, Concentration 2500): 0.5571
- mean_norm (normalized viability) ([7]; dox 1000, Concentration 5000): 0.3298
- mean_norm (normalized viability) ([7]; dox 1000, Concentration 10000): 0.194
